Source: PubChem BioAssay AID2060500 (Molecular Pharmacology Branch, DTP, NCI, 2025)

System: 596521-263-R-J1-PDC complex spheroids, viability % of control
Experiment: Anticancer human tumor 596521-263-R-J1-PDC patient-derived soft tissue sarcoma cell line growth inhibition [GQUAD]
Details: for IC50: curve of first compound; for viability, T/C: stronger effect = lower value
Method in brief: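 Multi-cell-type spheroids of tumor cells with HUVEC and mesenchymal stem cells, treated with drug combinations. Concentrations descend in half-log steps from near clinical Cmax, or from 10 microM where Cmax is unknown; viability read-out.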

[1] = second compound 0.0316 µM, first compound 0.0316 µM
[2] = second compound 0.0316 µM, first compound 0.1 µM
[3] = second compound 0.0316 µM, first compound 0.316 µM
[4] = second compound 0.0316 µM, first compound 1 µM
[5] = second compound 0.0316 µM, first compound 3.16 µM
[6] = second compound 0.0316 µM, first compound 10 µM
[7] = second compound 0.1 µM, first compound 0.0316 µM
[8] = second compound 0.1 µM, first compound 0.1 µM
[9] = second compound 0.1 µM, first compound 0.316 µM
[10] = second compound 0.1 µM, first compound 1 µM
[11] = second compound 0.1 µM, first compound 3.16 µM
[12] = second compound 0.1 µM, first compound 10 µM
[13] = second compound 0.316 µM, first compound 0.0316 µM
[14] = second compound 0.316 µM, first compound 0.1 µM
[15] = second compound 0.316 µM, first compound 0.316 µM
[16] = second compound 0.316 µM, first compound 1 µM
[17] = second compound 0.316 µM, first compound 3.16 µM
[18] = second compound 0.316 µM, first compound 10 µM
[19] = second compound 1 µM, first compound 0.0316 µM
[20] = second compound 1 µM, first compound 0.1 µM
[21] = second compound 1 µM, first compound 0.316 µM
[22] = second compound 1 µM, first compound 1 µM
[23] = second compound 1 µM, first compound 3.16 µM
[24] = second compound 1 µM, first compound 10 µM
[25] = second compound 3.16 µM, first compound 0.0316 µM
[26] = second compound 3.16 µM, first compound 0.1 µM
[27] = second compound 3.16 µM, first compound 0.316 µM
[28] = second compound 3.16 µM, first compound 1 µM
[29] = second compound 3.16 µM, first compound 3.16 µM
[30] = second compound 3.16 µM, first compound 10 µM
[31] = second compound 10 µM, first compound 0.0316 µM
[32] = second compound 10 µM, first compound 0.1 µM
[33] = second compound 10 µM, first compound 0.316 µM
[34] = second compound 10 µM, first compound 1 µM
[35] = second compound 10 µM, first compound 3.16 µM
[36] = second compound 10 µM, first compound 10 µM
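Note: spheroids exposed to drugs for 7 days before viability reading.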
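Throughout, for viability, T/C: 100% = DMSO vehicle control viability.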

Compound: COc1ncnc(C2CC2)c1-c1ncc2cnn(Cc3ccc(-c4nc(C(F)(F)F)cn4C(C)C)cc3)c2n1 + CN(C)c1ccc(Nc2c3ccc(NC(=O)CCN4CCCC4)cc3nc3cc(NC(=O)CCN4CCCC4)ccc23)cc1
- IC50 (second compound 0.0316 µM): > 10000 nM
- IC50 (second compound 0.1 µM): > 10000 nM
- IC50 (second compound 0.316 µM): > 10000 nM
- IC50 (second compound 1 µM): > 10000 nM
- IC50 (second compound 3.16 µM): > 10000 nM
- IC50 (second compound 10 µM): 3760 nM
- viability, T/C [1]: 94.8%
- viability, T/C [2]: 100%
- viability, T/C [3]: 92.2%
- viability, T/C [4]: 104%
- viability, T/C [5]: 90.9%
- viability, T/C [6]: 97.2%
- viability, T/C [7]: 103%
- viability, T/C [8]: 94.7%
- viability, T/C [9]: 98.4%
- viability, T/C [10]: 89.8%
- viability, T/C [11]: 98.6%
- viability, T/C [12]: 93.5%
- viability, T/C [13]: 103%
- viability, T/C [14]: 99.2%
- viability, T/C [15]: 101%
- viability, T/C [16]: 106%
- viability, T/C [17]: 104%
- viability, T/C [18]: 105%
- viability, T/C [19]: 95.4%
- viability, T/C [20]: 92.5%
- viability, T/C [21]: 93.5%
- viability, T/C [22]: 81.1%
- viability, T/C [23]: 108%
- viability, T/C [24]: 88.3%
- viability, T/C [25]: 89.9%
- viability, T/C [26]: 106%
- viability, T/C [27]: 87.9%
- viability, T/C [28]: 108%
- viability, T/C [29]: 86.6%
- viability, T/C [30]: 72.6%
- viability, T/C [31]: 63%
- viability, T/C [32]: 57.7%
- viability, T/C [33]: 63.8%
- viability, T/C [34]: 57%
- viability, T/C [35]: 52%
- viability, T/C [36]: 38.4%

Compound: C#Cc1c(F)ccc2cc(O)cc(-c3ncc4c(N5CC6CCC(C5)N6)nc(OCC56CCCN5CC(F)C6)nc4c3F)c12 (stereo unspecified) + Cc1[nH]c2ccc(F)cc2c1-c1nc2c3cccnc3c3ncccc3c2[nH]1
- IC50 (second compound 0.0316 µM): 1280 nM
- IC50 (second compound 0.1 µM): 1390 nM
- IC50 (second compound 0.316 µM): 1380 nM
- IC50 (second compound 1 µM): 1350 nM
- IC50 (second compound 3.16 µM): 1710 nM
- IC50 (second compound 10 µM): 1490 nM
- viability, T/C [1]: 111%
- viability, T/C [2]: 94.7%
- viability, T/C [3]: 89.1%
- viability, T/C [4]: 60.9%
- viability, T/C [5]: 17.9%
- viability, T/C [6]: 18.9%
- viability, T/C [7]: 104%
- viability, T/C [8]: 93.3%
- viability, T/C [9]: 97.4%
- viability, T/C [10]: 62.1%
- viability, T/C [11]: 17.5%
- viability, T/C [12]: 22.7%
- viability, T/C [13]: 113%
- viability, T/C [14]: 95.6%
- viability, T/C [15]: 97.3%
- viability, T/C [16]: 62.5%
- viability, T/C [17]: 16.1%
- viability, T/C [18]: 21.2%
- viability, T/C [19]: 88%
- viability, T/C [20]: 87.7%
- viability, T/C [21]: 92.9%
- viability, T/C [22]: 59.9%
- viability, T/C [23]: 21.1%
- viability, T/C [24]: 22.5%
- viability, T/C [25]: 83.8%
- viability, T/C [26]: 95.1%
- viability, T/C [27]: 80.7%
- viability, T/C [28]: 65.9%
- viability, T/C [29]: 31.6%
- viability, T/C [30]: 29%
- viability, T/C [31]: 78.3%
- viability, T/C [32]: 78%
- viability, T/C [33]: 81%
- viability, T/C [34]: 60.8%
- viability, T/C [35]: 29.1%
- viability, T/C [36]: 30%

Compound: CC[C@@]1(O)C(=O)OCc2c1cc1n(c2=O)Cc2cc3c(CN(C)C)c(O)ccc3nc2-1 + Cc1cnc(CNC(=O)c2c(=O)c3ccc(N4CCCN(C)CC4)nc3n3c2sc2ccccc23)cn1
- IC50 (second compound 0.0316 µM): > 316 nM
- IC50 (second compound 0.1 µM): > 316 nM
- IC50 (second compound 0.316 µM): > 316 nM
- IC50 (second compound 1 µM): > 316 nM
- IC50 (second compound 3.16 µM): > 316 nM
- IC50 (second compound 10 µM): < 0.999 nM
- viability, T/C (second compound 0.0316 µM, first compound 0.000999 µM): 107%
- viability, T/C (second compound 0.0316 µM, first compound 0.00316 µM): 102%
- viability, T/C (second compound 0.0316 µM, first compound 0.00999 µM): 78.7%
- viability, T/C [1]: 66.5%
- viability, T/C (second compound 0.0316 µM, first compound 0.0999 µM): 60.1%
- viability, T/C [3]: 60.1%
- viability, T/C (second compound 0.1 µM, first compound 0.000999 µM): 88.9%
- viability, T/C (second compound 0.1 µM, first compound 0.00316 µM): 85%
- viability, T/C (second compound 0.1 µM, first compound 0.00999 µM): 76.5%
- viability, T/C [7]: 69.3%
- viability, T/C (second compound 0.1 µM, first compound 0.0999 µM): 57.2%
- viability, T/C [9]: 50.9%
- viability, T/C (second compound 0.316 µM, first compound 0.000999 µM): 90.1%
- viability, T/C (second compound 0.316 µM, first compound 0.00316 µM): 86.7%
- viability, T/C (second compound 0.316 µM, first compound 0.00999 µM): 78.3%
- viability, T/C [13]: 63%
- viability, T/C (second compound 0.316 µM, first compound 0.0999 µM): 67.1%
- viability, T/C [15]: 65.7%
- viability, T/C (second compound 1 µM, first compound 0.000999 µM): 70.8%
- viability, T/C (second compound 1 µM, first compound 0.00316 µM): 60.2%
- viability, T/C (second compound 1 µM, first compound 0.00999 µM): 60.4%
- viability, T/C [19]: 63.2%
- viability, T/C (second compound 1 µM, first compound 0.0999 µM): 59.3%
- viability, T/C [21]: 55.8%
- viability, T/C (second compound 3.16 µM, first compound 0.000999 µM): 54.3%
- viability, T/C (second compound 3.16 µM, first compound 0.00316 µM): 60.7%
- viability, T/C (second compound 3.16 µM, first compound 0.00999 µM): 51.5%
- viability, T/C [25]: 54.4%
- viability, T/C (second compound 3.16 µM, first compound 0.0999 µM): 58%
- viability, T/C [27]: 56.2%
- viability, T/C (second compound 10 µM, first compound 0.000999 µM): 46.5%
- viability, T/C (second compound 10 µM, first compound 0.00316 µM): 47.1%
- viability, T/C (second compound 10 µM, first compound 0.00999 µM): 49.7%
- viability, T/C [31]: 43.7%
- viability, T/C (second compound 10 µM, first compound 0.0999 µM): 49.4%
- viability, T/C [33]: 49%
